Assay results: patent US12570694B2, “Peptides and pharmaceutical, nutraceutical or veterinary compositions for hair loss prevention and/or treatment” (VYTRUS BIOTECH, S.L., priority 2016, dated 2026)
Several values for one entry are separate records, joined by “and”; a condition that tells them apart may be missing. Equal entries are not always repeated.

Experiments:
[1] = test system: males and females with hair-loss problems; test: In vivo test: combing test (number of hair lost during combing) in volunteers; design: species or system human
Description: Curcuma longa cell-free supernatant prepared as indicated in Example 2, as well as the peptide of SEQ ID NO: 6 in the PBS buffered fortifying solution 2× disclosed in Example 1 were tested in males and females (n=60, from 18 to 60 years old) with hair-loss problems. There were excluded those volunteers that received a capillary treatment three months before the assay, volunteers with cutanic pathologies at scalp (psoriasis, dermatitis, etc.) and allergy to compounds in the formulations.
Tested compounds were daily applied.
At time 0 (T0) there were taken scalp pictures (frontal and occipital parts), trichograms for determining the hair phase cycle (telogen or anagen phase), the combing test (number of hair lost during combing), and capillary density by microphotography with Trichoscan®.
At t=45 days and t=90 days, there were performed the combing test and the density tests (Trichoscan®)
At t=150 days again as in t=0.
Volunteers were separated in three groups. Group 1 receiving SEQ ID NO: 6 in the PBS buffered fortifying solution 2× disclosed in Example 1; Group 2 receiving Curcuma longa cell-free supernatant prepared as indicated in Example 2, and Group 3 the placebo.
In particular, this table includes the average values determined for combing test (number of hair lost during combing). From the combing test results at t=0, t=45 and t=90 the percentage of reduction of hair loss is calculated contrasting values of t=0 with the values at t=45 and at t=90.

miRNA-31 = miRNA-31 expression in secretomes of treated HFDPC; type: cell-based, human; conditions: in relation to the controls, FIG. 5(A),(C)
Description: FIG. 5, related with Assay 1, is a graph showing the expression levels of miRNA-22 (FIG. 5(B)) and miRNA-31 (FIGS. 5(A) and (C)) in secretomas from HFDPC treated with either the peptide of SEQ ID NO: 6 or the cell-free supernatants of Curcuma longa.
From these secretomes of HFDPC, also the levels of the microRNAs miRNA-31 and miRNA-22 were detected (FIG. 5).

[2] = test system: human dermal fibroblasts (HDF); test: Wound healing (scratch) assay on human dermal fibroblasts; type: cell-based; conditions: FIG. 17; 5 μg/ml and 0.05 μg/ml; 5 days of treatment; triplicate mean; vs 0.1% FBS basal, 10% FBS and TGF-β1 positive controls
Description: In order to test the effect of the sulfaction state of the peptides on their activity, it is herewith provided as reference example a wound healing assay conducted onto human dermal fibroblasts (HDF).
Human dermal fibroblasts were seeded in a 24-well plate and were grown to confluence. A 2 mm width scratch was done on the culture monolayer. Then the test products in culture medium were added and the cicatrisation process was followed by means of phase contrast microscopy. With this aim, photographs were taken at initial of the test (T=0 h) before the scratching and after the treatment (at 12 h and at 72 h). Cicatrisation process was evaluated by quantifying wound area reduction at each time.
Data at the end of the test (5 days of treatment) are depicted in FIG. 17, wherein the wound healing potential is depicted as the Healed Area (in μm^2) for assayed peptide.
The results derive from a triplicate test. Values of cicatrised area (or % of cicatrisation) are the mean values.

[3] = group mean, combing test, minimal and maximal values not considered
[4] = individual volunteers, negative = fewer hairs lost

Substance: CH3—C(O)—YIYT-NH2 (Ac-YIYT-NH2) [SEQ ID NO: 6, in vivo: dissolved 0.025% w/w in PBS buffered fortifying solution 2×]
- reduction of the % of hair loss (in words) ([1]; T45, T90 and T150 compared with T0): meaningful reduction of the % of hair loss
- % REDUCTION OF HAIR LOSS T0 vs. T150, Mean [1, 3]: 68.15%
- % hair-loss reduction t = 0 vs t = 45, mean [1, 3]: 40.48%
- % hair-loss reduction t = 0 vs t = 90, mean [1, 3]: 39.72%
- COMBING TEST T45 ([1]; individual volunteers, number of hair lost during combing, day 45): 7 and 54 and 23 and 13 and 88 and 184 and 34 and 58 and 60 and 62 and 50 and 10 and 31 and 28 and 101 and 66 and 24 and 14 and 46 and 92
- COMBING TEST T90 ([1]; individual volunteers, number of hair lost during combing, day 90): 6 and 88 and 28 (2×) and 36 and 154 and 60 and 50 and 61 and 84 and 27 and 12 and 45 and 118 and 91 and 23 and 22 and 59 and 62
- COMBING TEST T150 ([1]; individual volunteers, number of hair lost during combing, day 150): 5 and 13 (2×) and 19 (2×) and 22 and 24 and 18 and 12 and 20 (3×) and 23 and 29 and 95 and 42 and 167 and 16 and 36
- % REDUCTION OF HAIR LOSS T0 VS. T45 [1, 4]: −86.27% and −55.74% and −46.51% and −69.05% and 72.55% and 183.08(*) % and −43.33% and −44.23% and −47.83% and −78.32% and −30.56% and −98.13(*) % and −36.73% and −68.54% and −31.29% and −67.00% and −22.58% and −64.10% and −42.50% and 33.33%
- % REDUCTION OF HAIR LOSS T0 VS. T90 [1, 4]: −88.24% and −27.87% and −34.88% and −33.33% and −29.41% and 136.92(*) % and 0.00% and −51.92% and −46.96% and −70.63% and −62.50% and −97.76(*) % and −49.44% and −19.73% and −54.50% and −25.81% and −43.59% and −26.25% and −10.14%
- % REDUCTION OF HAIR LOSS T0 vs. T150 [1, 4]: −90.20% and −89.34% and −69.77% and −54.76% and −56.86% and −63.08% and −70.00% and −88.46% and −82.61% and −91.96(*) % and −59.72% and −82.24% and −78.65% and −71.43% and −16.50% and −35.48(*) % and −58.97% and −55.00% and −71.01%
- expression index of miRNA-31 (miRNA-31): increase of the expression index of miRNA-31
- wound healing potential, Healed Area [2]: independent of its sulfaction state
